# pIC50: −log10 of the molar value.
# Target: T1, recombinant human GR (Homo sapiens, UniProt P04150)
# T1 construct: purchased Panvera/Invitrogen P2812 (kit P2893)
# T1 sequence (P04150 1-777): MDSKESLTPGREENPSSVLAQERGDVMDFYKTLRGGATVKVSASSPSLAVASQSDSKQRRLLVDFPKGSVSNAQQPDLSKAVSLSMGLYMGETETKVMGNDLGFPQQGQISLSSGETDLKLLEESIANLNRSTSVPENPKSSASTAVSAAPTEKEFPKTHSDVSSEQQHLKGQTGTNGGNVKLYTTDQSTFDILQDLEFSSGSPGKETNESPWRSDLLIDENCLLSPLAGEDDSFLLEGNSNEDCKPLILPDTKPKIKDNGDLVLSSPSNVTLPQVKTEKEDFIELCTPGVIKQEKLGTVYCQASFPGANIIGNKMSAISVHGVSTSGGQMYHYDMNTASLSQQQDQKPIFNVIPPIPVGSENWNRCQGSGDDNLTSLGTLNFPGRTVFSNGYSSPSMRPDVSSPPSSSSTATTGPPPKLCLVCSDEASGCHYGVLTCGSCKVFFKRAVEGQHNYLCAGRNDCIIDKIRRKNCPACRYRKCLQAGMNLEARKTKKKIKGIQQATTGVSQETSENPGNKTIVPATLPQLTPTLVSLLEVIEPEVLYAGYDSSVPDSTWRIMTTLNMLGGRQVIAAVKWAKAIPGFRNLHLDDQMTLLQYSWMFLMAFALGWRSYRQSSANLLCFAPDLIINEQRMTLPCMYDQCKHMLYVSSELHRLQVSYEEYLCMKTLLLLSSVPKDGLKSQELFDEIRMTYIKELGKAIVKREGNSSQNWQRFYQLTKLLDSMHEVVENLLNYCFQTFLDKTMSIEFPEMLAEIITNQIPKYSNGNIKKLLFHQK
# Test: Human Glucocorticoid Receptor (GR) Assay (fluorescence polarization competition, Panvera/Invitrogen kit)
# Settings: GS Red Fluoromone tracer, 2 hours at room temperature, 100% control 10 μM Dexamethasone, read-out: Inhibition of GR binding, IC50
# Experimental: Human Glucocorticoid Receptor (GR) Assay The assay is based on a commercial kit from Panvera/Invitrogen (Part number P2893). The assay technology is fluorescence polarization. The kit utilises recombinant human GR (Panvera, Part number P2812), a Fluoromone™ labelled tracer (GS Red, Panvera, Part number P2894) and a Stabilizing Peptide 10× (Panvera, Part number P2815). The GR and Stabilizing Peptide reagents are stored at −70° C. while the GS Red is stored at −20° C. Also included in the kit are 1M DTT (Panvera, Part number P2325, stored at −20° C.) and GR Screening buffer 10× (Panvera, Part number P2814, stored at −70° C. initially but once thawed stored at room temperature). Avoid repeated freeze/thaws for all reagents. The GR Screening buffer 10× comprises 100 mM potassium phosphate, 200 mM sodium molybdate, 1 mM EDTA and 20% DMSO. Test compounds (1 μL) and controls (1 μL) in 100% DMSO were added to black is polystyrene 384-well plates (Greiner low volume black flat-bottom, part number 784076). 0% control was 100% DMSO and 100% control was 10 μM Dexamethasone. Background solution (8 μL; assay buffer 10×, Stabilizing Peptide, DTT and ice cold MQ water) was added to the background wells. GS Red solution (7 μL; assay buffer 10×, Stabilizing Peptide, DTT, GS Red and ice cold water) was added to all wells except background wells. GR solution (7 μL; assay buffer 10×, Stabilizing Peptide, DTT, GR and ice cold water) was added to all wells. The plate was sealed and incubated in a dark at room temperature for 2 hours. The plate was read in an Analyst plate reader (LJL Biosystems/Molecular Devices Corporation) or other similar plate reader capable of recording fluorescence polarization (excitation wavelength 530 nm, emission wavelength 590 nm and a dichroic mirror at 561 nm).
row,Compound,pIC50
1,"COCC(=O)O[C@]1(C(=O)SCF)CC[C@H]2[C@@H]3C[C@H](C)C4=Cc5c(cnn5-c5ccc(F)nc5)C[C@]4(C)[C@H]3[C@@H](O)C[C@@]21C [Example 8, (1R,3aS,3bS,5S,10aR,10bS,11S,12aS)-1-{[(Fluoromethyl)sulfanyl]carbonyl}-7-(6-fluoropyridin-3-yl)-11-hydroxy-5,10a,12a-trimethyl-1,2,3,3a,3b,4,5,7,10,10a,10b,11,12,12a-tetradecahydrocyclopenta[5,6]naphtho[1,2-f]indazol-1-yl methoxyacetate]",9.03
2,"C[C@H]1C[C@@H]2[C@H]([C@@H](O)C[C@@]3(C)[C@H]2CC[C@]3(OC(=O)c2cocn2)C(=O)SCF)[C@@]2(C)Cc3cnn(-c4ccc(F)nc4)c3C=C12 [Example 9, (1R,3aS,3bS,5S,10aR,10bS,11S,12aS)-1-{[(Fluoromethyl)sulfanyl]carbonyl}-7-(6-fluoropyridin-3-yl)-11-hydroxy-5,10a,12a-trimethyl-1,2,3,3a,3b,4,5,7,10,10a,10b,11,12,12a-tetradecahydrocyclopenta[5,6]naphtho[1,2-f]indazol-1-yl 1,3-oxazole-4-carboxylate]",8.82
3,"C[C@H]1C[C@@H]2[C@H]([C@@H](O)C[C@@]3(C)[C@H]2CC[C@]3(OC(=O)c2cocn2)C(=O)SCC#N)[C@@]2(C)Cc3cnn(-c4ccc(F)nc4)c3C=C12 [Example 10, (1R,3aS,3bS,5S,10aR,10bS,11S,12aS)-1-{[(Cyanomethyl)sulfanyl]carbonyl}-7-(6-fluoropyridin-3-yl)-11-hydroxy-5,10a,12a-trimethyl-1,2,3,3a,3b,4,5,7,10,10a,10b,11,12,12a-tetradecahydrocyclopenta[5,6]naphtho[1,2-f]indazol-1-yl 1,3-oxazole-4-carboxylate]",9.05
4,"C[C@H]1C[C@@H]2[C@H]([C@@H](O)C[C@@]3(C)[C@H]2CC[C@]3(OC(=O)C2CC2)C(=O)SCC#N)[C@@]2(C)Cc3cnn(-c4ccc(F)nc4)c3C=C12 [Example 11, (1R,3aS,3bS,5S,10aR,10bS,11S,12aS)-1-{[(Cyanomethyl)sulfanyl]carbonyl}-7-(6-fluoropyridin-3-yl)-11-hydroxy-5,10a,12a-trimethyl-1,2,3,3a,3b,4,5,7,10,10a,10b,11,12,12a-tetradecahydrocyclopenta[5,6]naphtho[1,2-f]indazol-1-yl cyclopropanecarboxylate]",8.68
5,"C[C@]12Cc3cnn(-c4ccc(F)nc4)c3C=C1CC[C@H]1[C@@H]3CC[C@](OC(=O)[C@H]4CCCO4)(C(=O)SCC#N)[C@@]3(C)C[C@H](O)[C@@]12F [Example 12, (1R,3aS,3bS,10aS,10bR,11S,12aS)-1-{[(Cyanomethyl)sulfanyl]carbonyl}-10b-fluoro-7-(6-fluoropyridin-3-yl)-11-hydroxy-10a,12a-dimethyl-1,2,3,3a,3b,4,5,7,10, 10a,10b,11,12,12a-tetradecahydrocyclopenta[5,6]naphtho[1,2-f]indazol-1-yl (2R)-tetrahydrofuran-2-carboxylate]",9.00
6,"C[C@]12Cc3cnn(-c4ccc(F)nc4)c3C=C1CC[C@H]1[C@@H]3CC[C@](OC(=O)[C@H]4CCCO4)(C(=O)SCF)[C@@]3(C)C[C@H](O)[C@@]12F [Example 13, (1R,3aS,3bS,10aS,10bR,11S,12aS)-10b-Fluoro-1-{[(fluoromethyl)sulfanyl]carbonyl}-7-(6-fluoropyridin-3-yl)-11-hydroxy-10a,12a-dimethyl-1,2,3,3a,3b,4,5,7,10,10a,10b,11,12,12a-tetradecahydrocyclopenta[5,6]naphtho[1,2-f]indazol-1-yl (2R)-tetrahydrofuran-2-carboxylate]",9.01
7,"C[C@]12Cc3cnn(-c4ccc(F)nc4)c3C=C1CC[C@H]1[C@@H]3CC[C@](OC(=O)[C@H]4CCCO4)(C(=O)SCCO)[C@@]3(C)C[C@H](O)[C@@]12F [Example 14, (1R,3aS,3bS,10aS,10bR,11S,12aS)-10b-Fluoro-7-(6-fluoropyridin-3-yl)-11-hydroxy-1-{[(2-hydroxyethyl)sulfanyl]carbonyl}-10a,12a-dimethyl-1,2,3,3a,3b,4,5,7, 10, 10a, 10,11,12,12a-tetradecahydrocyclopenta[5,6]naphtho[1,2-f]indazol-1-yl (2R)-tetrahydrofuran-2-carboxylate]",9.19

# Results, then the molecule that gave them:
row,pIC50,Compound
1,9.26,"C[C@]12Cc3cnn(-c4ccc(F)nc4)c3C=C1CC[C@H]1[C@@H]3CC[C@](OC(=O)[C@@H]4CCCO4)(C(=O)SCC#N)[C@@]3(C)C[C@H](O)[C@@]12F [Example 17, (1R,3aS,3bS,10aS,10bR,11S,12aS)-1-{[(Cyanomethyl)sulfanyl]carbonyl}-10b-fluoro-7-(6-fluoropyridin-3-yl)-11-hydroxy-10a,12a-dimethyl-1,2,3,3a,3b,4,5,7,10,10a,10b,11,12,12a-tetradecahydrocyclopenta[5,6]naphtho[1,2-f]indazol-1-yl (2S)-tetrahydrofuran-2-carboxylate]"
2,8.85,"C[C@]12Cc3cnn(-c4ccc(F)nc4)c3C=C1CC[C@H]1[C@@H]3CC[C@](OC(=O)C4CC4)(C(=O)OCC#N)[C@@]3(C)C[C@H](O)[C@@]12F [Example 19, (1R,3aS,3bS,10aS,10bR,11S,12aS)-1-{[Cyanomethyloxy]carbonyl}-10b-fluoro-7-(6-fluoropyridin-3-yl)-11-hydroxy-10a,12a-dimethyl-1,2,3,3a,3b,4,5,7,10,10a,10b,11,12,12a-tetradecahydrocyclopenta[5,6]naphtho[1,2-f]indazol-1-yl cyclopropanecarboxylate]"
3,8.55,"C[C@H]1C[C@@H]2[C@H]([C@@H](O)C[C@@]3(C)[C@H]2CC[C@]3(OC(=O)c2ccco2)C(=O)SCF)[C@@]2(C)Cc3cnn(-c4ccc(F)nc4)c3C=C12 [Example 21, (1R,3aS,3bS,5S,10aR,10bS,11S,12aS)-1-{[(Fluoromethyl)sulfanyl]carbonyl}-7-(6-fluoropyridin-3-yl)-11-hydroxy-5,10a,12a-trimethyl-1,2,3,3a,3b,4,5,7,10,10a,10b,11,12,12a-tetradecahydrocyclopenta[5,6]naphtho[1,2-f]indazol-1-yl furan-2-carboxylate]"
4,8.77,"C[C@H]1C[C@@H]2[C@H]([C@@H](O)C[C@@]3(C)[C@H]2CC[C@]3(OC(=O)c2ccco2)C(=O)SCC#N)[C@@]2(C)Cc3cnn(-c4ccc(F)nc4)c3C=C12 [Example 22, (1R,3aS,3bS,5S,10aR,10bS,11S,12aS)-1-{[(Cyanomethyl)sulfanyl]carbonyl}-7-(6-fluoropyridin-3-yl)-11-hydroxy-5,10a,12a-trimethyl-1,2,3,3a,3b,4,5,7,10,10a,10b,11,12,12a-tetradecahydrocyclopenta[5,6]naphtho[1,2-f]indazol-1-yl furan-2-carboxylate]"
5,9.00,"CCC(=O)O[C@]1(C(=O)SCC#N)CC[C@H]2[C@@H]3C[C@H](C)C4=Cc5c(cnn5-c5ccc(F)nc5)C[C@]4(C)[C@H]3[C@@H](O)C[C@@]21C [Example 23, (1R,3aS,3bS,5S,10aR,10bS,11S,12aS)-1-{[(Cyanomethyl)sulfanyl]carbonyl}-7-(6-fluoropyridin-3-yl)-11-hydroxy-5,10a,12a-trimethyl-1,2,3,3a,3b,4,5,7,10,10a,10b,11,12,12a-tetradecahydrocyclopenta[5,6]naphtho[1,2-f]indazol-1-yl propanoate]"

# — US8338587B2, “Compounds” (AstraZeneca AB, priority 2009, dated 2012)
